Measurements published in ChEMBL document CHEMBL1201862, “PubChem BioAssay data set” (2004).
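Dose response: 5 concentrations. Exposure: 48 h. Format: 96-well plates. Endpoint: linear interpolation; highest concentration if not reached. GI50 marks 50% less growth.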 Calls of active or inactive are those of the source. Rule as the data show it: active = GI50 up to about 1.1 µM and inactive = higher.

Key:
Assay in all cases: NCI tumour cell line growth inhibition, 48 h
[1] = tested on: 786-0
[2] = tested on: A549
[3] = tested on: ACHN
[4] = tested on: CCRF-CEM
[5] = tested on: DMS-114
[6] = tested on: DU-145
[7] = tested on: HCC 2998
[8] = tested on: HCT-116
[9] = tested on: HL-60
[10] = tested on: HOP-92
[11] = tested on: LOX IMVI
[12] = tested on: NCI-H23
[13] = tested on: NCI-H460
[14] = tested on: OVCAR-5
[15] = tested on: OVCAR-8
[16] = tested on: SF-268
[17] = tested on: SK-MEL-2
[18] = tested on: SNB-19
[19] = tested on: TK-10

Measured: GI50

N=C(N)NS(=O)(=O)c1ccc(NC(=O)c2cccc3c(O)c4ccccc4nc23)cc1
inactive: [1] 58.1 µM | [2] > 100 µM | [3] > 100 µM | [4] 28.9 µM | [5] > 100 µM | [6] > 100 µM | [7] > 71.8 µM | [8] > 100 µM | [9] > 100 µM | [10] 56.2 µM | [11] > 75 µM | [12] > 92.3 µM | [13] > 100 µM | [14] 99.3 µM | [15] 71.1 µM | [16] > 100 µM | [17] > 100 µM | [18] 59.4 µM | [19] 54.8 µM

Cc1cc(C)c2c(c1)N[S@@](=O)S2
inactive: [1] 15 µM | [2] 27.9 µM | [3] 23.4 µM | [4] 21.9 µM | [5] 18.7 µM | [7] 39.6 µM | [8] 17.1 µM | [9] 26.4 µM | [10] 45.8 µM | [11] 15.3 µM | [12] 35.4 µM | [13] 21.8 µM | [14] 30.6 µM | [15] 17.7 µM | [16] 17.9 µM | [17] 22.3 µM | [18] 30.8 µM | [19] 30.4 µM

Cc1ccccc1C1OC(=O)c2ccc3ccccc3c21 (centres undefined)
inactive: [1] 4.57 µM | [2] 5.48 µM | [3] 4.63 µM | [4] 4.21 µM | [5] 4.67 µM | [7] 4 µM | [8] 2.52 µM | [9] 2.79 µM | [10] 10.8 µM | [11] 2.57 µM | [12] 5.71 µM | [13] 3.23 µM | [14] 8.57 µM | [15] 3.12 µM | [16] 6.97 µM | [17] 2.25 µM | [18] 8.87 µM | [19] 7 µM

CSc1ccc(N2C(=O)C3c4[nH]c5ccccc5c4C4CCC(C(C)(C)C)CC4C3C2=O)cc1 (centres undefined)
inactive: [1] 14.9 µM | [2] 15.3 µM | [3] 13.9 µM | [4] 8.49 µM | [5] 15.2 µM | [7] 15.6 µM | [8] 5.24 µM | [9] 13.7 µM | [10] 11.3 µM | [11] 14 µM | [12] 15.5 µM | [13] 14.1 µM | [14] 48.3 µM | [15] 12.1 µM | [16] 12.4 µM | [17] 17.6 µM | [18] 19.1 µM | [19] 19.5 µM

CC1=C(C)CC2(CCCCC2=O)[S+]([O-])C1 (centres undefined)
inactive: [1] > 100 µM | [2] > 100 µM | [3] > 100 µM | [4] > 100 µM | [5] > 100 µM | [7] > 100 µM | [8] > 100 µM | [9] > 100 µM | [10] > 100 µM | [11] > 100 µM | [12] > 100 µM | [13] > 100 µM | [14] > 100 µM | [15] > 100 µM | [16] > 100 µM | [17] > 100 µM | [18] > 100 µM | [19] > 100 µM

CCOC(=O)N1C2C=C(C)C(C3C(C)C(=O)N31)N(C(=O)c1ccccc1)O2 (centres undefined)
inactive: [1] > 100 µM | [2] > 100 µM | [3] > 100 µM | [4] > 100 µM | [5] > 100 µM | [7] > 100 µM | [8] > 100 µM | [9] > 100 µM | [10] > 100 µM | [11] > 100 µM | [12] > 100 µM | [13] > 100 µM | [14] > 100 µM | [15] > 100 µM | [16] > 100 µM | [17] > 100 µM | [18] > 100 µM | [19] > 100 µM
